Consider one sequence from patent publication US20240407993A1, “PEPTIDE HAVING ANTI-AGING ACTIVITY, AND USE THEREOF” (CAREGEN CO., LTD., priority 2021, published 2024).

Assay [1] deals with Col1a1. As to the kind of experiment: Col1a1 (collagen) gene expression by RT-PCR in fibroblasts. Particulars: NIH3T3 cells, peptide 1, 10, 50 μM, 24 hours; FIGS. 1A, 1B. The class given is cell-based, mouse. Here is the method: First, NIH3T3 cells (mouse fibroblast cell line) were seeded in a 6-well plate at a cell density of 3×10^5 cell/well, and then the cells were cultured in DMEM medium containing 10% fetal bovine serum (FBS) for 24 hours. The cultured cells were washed once with serum free DMEM medium, and the peptide of the present invention was mixed in 1 mL of the serum free DMEM medium at each of concentrations of 1, 10, and 50 μM, and dispensed into the cells. A positive control (PC) was treated with 5 ng/ml of TGF-β1 instead of the above peptide. The cells were cultured in a CO2 incubator at 37° C. for 24 hours.
The cultured cells were washed twice with PBS, and RNA was extracted from the cells using easy blue (iNtRON, Cat. No.: 17061, Korea). The amount of RNA extracted was quantified, 1,000 ng of RNA was added per tube, and RT reaction was performed using a kit (enzynomics, Cat. No.: PT200, Korea). RT-PCR was performed using a PCR kit (enzynomics, Cat. No.: […], Korea). The sequences of the primers of collagen, fibronectin, and elastin used in RT-PCR and the sequence of the primer of GAPDH used to compare the total RNA amount of each treatment group are shown in [Table 2].

Assay [2] deals with AQP3. Kind of assay: AQP3 mRNA level by RT-PCR in keratinocytes. Particulars: HaCaT cells, peptide 1, 10, 50 μM, 24 hours; FIGS. 3A, 3C. The format is cell-based, human. As to the method:
First, HaCaT cells were seeded in a 6-well plate at a cell density of 3×10^5 cell/well, and then the cells were cultured in DMEM medium containing 10% fetal bovine serum (FBS) for 24 hours. The cultured cells were washed once with serum free DMEM medium, and then the peptide of the present invention was mixed in 1 mL of the serum free DMEM medium at each of concentrations of 1, 10, and 50 μM, and dispensed into the cells. A positive control (PC) was treated with 100 nM of EGF instead of the above peptide. The cells were cultured in a CO2 incubator at 37° C. for 24 hours.
The cultured cells were washed twice with PBS, and then RNA was extracted from the cells using easy blue (iNtRON, Cat. No.: 17061, Korea). The extracted RNA was subjected to RT reaction using a kit (enzynomics, Cat. No.: RT200, Korea). Thereafter, RT-PCR was performed using a PCR kit (enzynomics, Cat. No.: R581T, Korea). The sequences of the primers of AQP3 and SIRT1 used in RT-PCR and the sequence of the primer of GAPDH used to compare the total RNA amount of each treatment group are shown in [Table 2].

The test system of assay [3] is Col1a1. As to the kind of experiment: Col1a1 mRNA level decreased by UV irradiation, RT-PCR in fibroblasts. The class given is cell-based, mouse. Particulars: NIH3T3 cells, 8 J/cm^2 UVA, peptide 1, 10, 50 μM, 6 hours after irradiation; FIGS. 5A, 5B. Here is the method:
(§1) The expression of genes related to extracellular matrix components is inhibited when irradiated with UV.
(§2) First, NIH3T3 cells were seeded in a 6-well plate at a cell density of 5×10^5 cell/well, and then the cells were cultured in DMEM medium containing 10% fetal bovine serum (FBS) for 24 hours. The cultured cells were washed once with serum free DMEM medium, and then the peptide of the present invention was mixed in 1 mL of the serum free DMEM medium at each of concentrations of 1, 10, and 50 μM, and dispensed into the cells. A positive control (PC) was treated with 50 μM of Quercetin instead of the above peptide. The cells were cultured in a CO2 incubator at 37° C. for 1 hour.
(§3) The medium of the cultured cells was transferred to a tube (e-tube), 1 ml of PBS was added, and irradiation was performed with 8 J/cm^2 of UVA using a UV irradiator (VILBER LOURMAT, Cat No.: 3102-BSU, France). After removing PBS, 900 μL of the medium transferred to the tube was dispensed, and culture was performed in a CO2 incubator at 37° C. for 6 hours. The cultured cells were washed twice with PBS, and then RNA was extracted from the cells using easy blue (iNtRON, Cat. No.: 17061, Korea). The amount of RNA extracted was quantified, 1,000 ng of RNA was added per tube, and RT reaction was performed using a kit (enzynomics, Cat. No.: RT200, Korea). […]

Another assay deals with Fibronectin. As to the kind of experiment: Fibronectin mRNA level decreased by UV irradiation, RT-PCR in fibroblasts. The class given is cell-based, mouse. Particulars: NIH3T3 cells, 8 J/cm^2 UVA, peptide 1, 10, 50 μM, 6 hours after irradiation; FIGS. 5A, 5C. Here is the method:
as §1, §2, §3

The test system of another assay is SIRT1. Kind of assay: SIRT1 mRNA level decreased by UV irradiation, RT-PCR in keratinocytes. The class given is cell-based, human. Particulars: HaCaT cells, 20 mJ/cm^2 UVB, peptide 1, 10, 50 μM, 4 hours after irradiation; FIGS. 7A, 7B. As to the method: (§4) The expression of genes related to aging is inhibited when irradiated with UV.
(§5) First, HaCaT cells were seeded in a 6-well plate at a cell density of 5×10^5 cell/well, and then the cells were cultured in DMEM medium containing 10% fetal bovine serum (FBS) for 24 hours. The cultured cells were washed once with serum free DMEM medium, and then the peptide of the present invention was mixed in 1 mL of the serum free DMEM medium at each of concentrations of 1, 10, and 50 μM, and dispensed into the cells. A positive control (PC) was treated with 2.5 mM of N-Acetylcysteine (NaC) instead of the above peptide.
(§6) The cells were cultured in a CO2 incubator at 37° C. for 1 hour. The medium of the cultured cells was transferred to a tube (e-tube), 1 ml of PBS was added, and irradiation was performed with 20 mJ/cm^2 of UVB using a UV irradiator (VILBER LOURMAT, Cat No.: 3102-BSU, France). After removing PBS, 900 μL of the medium transferred to the tube was added, and culture was performed in a CO2 incubator at 37° C. for 4 hours. The cultured cells were washed twice with PBS, and then RNA was extracted from the cells using easy blue (iNtRON, Cat. No.: 17061, Korea). The extracted RNA was subjected to RT reaction using a kit (enzynomics, Cat. No.: RT200, Korea). Thereafter, RT-PCR was performed using a PCR kit (enzynomics, Cat. No.: R581T, Korea). […]

Assay [4] concerns AQP3. Kind of assay: AQP3 mRNA level decreased by UV irradiation, RT-PCR in keratinocytes. The class given is cell-based, human. Particulars: HaCaT cells, 20 mJ/cm^2 UVB, peptide 1, 10, 50 μM, 4 hours after irradiation; FIGS. 7A, 7C. As to the method: as §4, §5, §6

For the sequence LCACCLHNCNECQ, the “expression of the collagen (Col1a1) gene” value with Col1a1 [1] was “gradually increased as a concentration of the peptide increased”. For the same sequence, the “mRNA level of AQP3” value in the assay with AQP3 [2] is reported as “increased”. Moreover, the “mRNA level of Col1a1 decreased by UV irradiation” value in the assay with Col1a1 [3] was “increased again”. In addition, the “mRNA level of fibronectin decreased by UV irradiation” value in the assay with Fibronectin is given as “increased again”. Besides, the “mRNA level of SIRT1 decreased by UV irradiation” value in the assay on SIRT1 is recorded as “increased again”. Also, in the assay with AQP3 [4], the “mRNA level of AQP3 decreased by UV irradiation” value was “increased again”.
